According to PMC11659602, “Discovering covalent cyclic peptide inhibitors of peptidyl arginine deiminase 4 (PADI4) using mRNA-display with a genetically encoded electrophilic warhead” (Communications Chemistry, 2024):
Like-named read-outs stand apart in the source and are kept apart here. Where a SMILES comes first, the peptide text is derived from it. Bridges are numbered along the chain shown (N, C = ends). [ ]: non-standard residue; d: D form. Orn(fluoroacetimidoyl) = N=C(CF)NCCC[C@H](N)C(=O)O

How the values were obtained:
PADI4 [1] = target: T1, PADI4 (Homo sapiens, UniProt Q9UM07); assay: Surface plasmon resonance (SPR), single cycle kinetics; assay type: binding; settings: for Ki: k-1/k+1
T1 construct: His6; made in house
T1 sequence (Q9UM07 whole entry): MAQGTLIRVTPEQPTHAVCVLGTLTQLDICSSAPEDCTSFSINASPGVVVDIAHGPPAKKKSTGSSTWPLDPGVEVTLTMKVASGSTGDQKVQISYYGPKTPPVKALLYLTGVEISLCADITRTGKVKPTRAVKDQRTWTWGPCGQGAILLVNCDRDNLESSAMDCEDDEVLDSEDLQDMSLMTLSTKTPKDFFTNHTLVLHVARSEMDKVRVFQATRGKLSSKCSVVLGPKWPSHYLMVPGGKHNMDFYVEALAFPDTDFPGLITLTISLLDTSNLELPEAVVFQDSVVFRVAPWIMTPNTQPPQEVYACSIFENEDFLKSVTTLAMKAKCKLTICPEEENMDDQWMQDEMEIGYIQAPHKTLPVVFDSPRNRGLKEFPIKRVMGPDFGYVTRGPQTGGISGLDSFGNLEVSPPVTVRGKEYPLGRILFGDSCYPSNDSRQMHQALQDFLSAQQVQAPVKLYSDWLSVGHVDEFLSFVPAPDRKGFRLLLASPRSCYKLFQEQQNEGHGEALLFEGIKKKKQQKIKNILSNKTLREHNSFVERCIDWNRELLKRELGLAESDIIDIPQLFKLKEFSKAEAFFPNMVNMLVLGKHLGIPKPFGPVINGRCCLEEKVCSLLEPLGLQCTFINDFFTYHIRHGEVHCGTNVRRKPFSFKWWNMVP
Outline: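 Biotinylated His-PADI4 captured on CAP chip (~3000 RU); peptides as 5-point 3-fold series in HEPES, 150 mM NaCl, 10 mM CaCl2, 0.1% DMSO, pH 7.5, triplicate. Warhead peptides fitted two-state (k-2 = 0; Ki = k-1/k+1, kinact = k+2); others 1:1.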

PADI4 [2] = target: T1, PADI4; assay: COLDER inhibition assay, BAEE substrate, with or without 1 h preincubation; assay type: biochemical; settings: for IC50: COLDER; for remaining activity at 0.003 µM: peptide 0.003 µM; for remaining activity at 0.01 µM: peptide 0.01 µM; for remaining activity at 0.03 µM: peptide 0.03 µM; for remaining activity at 0.1 µM: peptide 0.1 µM; for remaining activity at 0.3 µM: peptide 0.3 µM; for remaining activity at 1 µM: peptide 1 µM; for remaining activity at 3 µM: peptide 3 µM
Outline: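 50 nM His-PADI4 with peptide (final 0.1× the 0.03-500 µM series), 0.6 mg/mL BSA, 10 mM CaCl2 in 50 mM HEPES, 150 mM NaCl, 2 mM DTT, pH 7.5, with or without 1 h preincubation before 10 mM BAEE. After 30 min at rt, EDTA-quenched; citrulline read colorimetrically at 540 nm; mean ± SEM, ≥2 replicates.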

[3] = each replicate, read-out: k2 / kinact
[4] = two-state reaction model, k+2, read-out: SPR kinact (converted)
[5] = 1 h preincubation of peptide and PADI4, 10 mM CaCl2, read-out: IC50 Values 1 h preincubation
[6] = no preincubation of peptide and PADI4, 10 mM CaCl2, read-out: IC50 Values 0 h preincubation
[7] = T=0, values starred, read-out: PADI4 activity normalised to 0.1% DMSO
[8] = T=1, read-out: PADI4 activity normalised to 0.1% DMSO
[9] = T=0, read-out: PADI4 activity normalised to 0.1% DMSO

| SMILES | kinact/KI (PADI4 [1]) [M⁻¹ s⁻¹] | k2 / kinact (PADI4 [1]; each replicate) [s⁻¹] | kinact (PADI4 [1]; [3]) [s⁻¹] | kinact (PADI4 [1]; [4]) [s⁻¹] | Ki (PADI4 [1]; two-state reaction model) [nM] | IC50 (PADI4 [2]; [5]) [nM] | IC50 (PADI4 [2]; [6]) [nM] | remaining activity at 0.003 µM (PADI4 [2]; [7]) [%] | remaining activity at 0.003 µM (PADI4 [2]; [8]) [%] | remaining activity at 0.01 µM (PADI4 [2]; [7]) [%] | remaining activity at 0.01 µM (PADI4 [2]; [8]) [%] | remaining activity at 0.03 µM (PADI4 [2]; [9]) [%] | remaining activity at 0.03 µM (PADI4 [2]; [8]) [%] | remaining activity at 0.1 µM (PADI4 [2]; [9]) [%] | remaining activity at 0.3 µM (PADI4 [2]; [9]) [%] | remaining activity at 1 µM (PADI4 [2]; [9]) [%] | remaining activity at 3 µM (PADI4 [2]; [9]) [%] | remaining activity at 0.1 µM (PADI4 [2]; [8]) [%] | remaining activity at 10 µM (PADI4 [2]; peptide 10 µM, T=0, read-out: PADI4 activity normalised to 0.1% DMSO) [%] | remaining activity at 30 µM (PADI4 [2]; peptide 30 µM, T=0, read-out: PADI4 activity normalised to 0.1% DMSO) [%] |
| --- | --- | --- | --- | --- | --- | --- | --- | --- | --- | --- | --- | --- | --- | --- | --- | --- | --- | --- | --- | --- |
| CC(C)C[C@@H]1NC(=O)[C@H](CCCCN)NC(=O)[C@H](CO)NC(=O)[C@H](CO)NC(=O)[C@H](Cc2ccc(O)cc2)NC(=O)[C@H](Cc2c[nH]cn2)NC(=O)[C@H](CCCNC(=N)CF)NC(=O)[C@H](CC(=O)O)NC(=O)[C@H](CC(C)C)NC(=O)[C@@H](Cc2ccc(O)cc2)NC(=O)CSC[C@@H](C(=O)NCC(N)=O)NC(=O)[C@H](Cc2ccc(O)cc2)NC1=O [cP4_15, yLD(2)HYSSKLYCG] ({CH2CO}-[dY]LD[Orn(fluoroacetimidoyl)]HYSSKLYCG-NH2; thioether N-12) | 26600 | 0.0051 | 0.0028 | 0.00417 | 160 ± 30 | 52 ± 2 | 1600 ± 30 | 95.7 | 87.4 | 92.2 | 88.3 | 95.8 | 81.5 | 88.7 | 82.7 | 61.2 | 32.3 | – | – | – |
| N=C(N)NCCC[C@@H]1NC(=O)[C@H](CCCNC(=N)CF)NC(=O)[C@H](CC(=O)O)NC(=O)[C@H](Cc2ccc(O)cc2)NC(=O)[C@H](CCCCN)NC(=O)[C@H](CO)NC(=O)[C@@H](Cc2ccc(O)cc2)NC(=O)CSC[C@@H](C(=O)NCC(N)=O)NC(=O)[C@H](CC(=O)O)NC(=O)[C@H](CCCNC(=N)N)NC(=O)[C@@H]2CCCN2C(=O)[C@H](CO)NC1=O [cP4_4, ySKYD(2)RSPRDCG] ({CH2CO}-[dY]SKYD[Orn(fluoroacetimidoyl)]RSPRDCG-NH2; thioether N-12) | 15200 | 0.0019 | 0.0017 | 0.00183 | 120 ± 10 | 70 ± 4 | 4400 ± 70 | 97.2 | 84.1 | 92.4 | 86.9 | 93.5 | 73.7 | 90.5 | 87.5 | 76.3 | 53.9 | 29.1 | 20.8 | 8.03 |
